PMC7265429, “Characterization of a new small-molecule inhibitor of HDAC6 in glioblastoma” (Cell Death & Disease, 2020)

System: GNS166 cells
Assay: Microarray whole-transcriptome gene expression analysis
Assay type: cell-based, human
Procedure: Whole-transcriptome analysis was performed from 300 ng of RNA using HuGene-2_0-st-v1 expression array (Affymetrix), which covers 48,226 transcripts. Raw data were first checked for quality purposes through the Affymetrix® Expression Console™ Software v1.4.1 and TAC software v4.0. Then, data were normalized using the Robust Multi-array Average (RMA) and analyzed by Limma tool. Probesets with FDR-corrected p-values smaller than 0.05 were selected. Functional enrichment on Gene Ontology (GO) biological processes was performed on a smaller subset of the differentially expressed genes (corrected p-value < 0.001) by means of Broad Institute GSEA. […] The data that support this study have been deposited in NCBI´s Gene Expression Omnibus and are accessible through GEO series accession number GSE143887.

[1] = sheet DMSO-SAHA_DOWN, microarray

O=C(CCCCCCC(=O)Nc1ccccc1)NO [SAHA, Suberoylanilide hydroxamic acid]
logFC TTC7B (transcript TC1400009967.hg.1) [1]: -1.063 | logFC TTC28 (transcript TC2200008356.hg.1) [1]: -1.091 | logFC TXNDC15 (transcript TC0500008705.hg.1) [1]: -1.511 | logFC USE1 (transcript TC1900007313.hg.1) [1]: -1.0842 | logFC VCAN (transcript TC0500007972.hg.1) [1]: -1.305 | logFC YAP1 (transcript TC1100008904.hg.1) [1]: -1.463 | logFC ZDHHC4 (transcript TC0700006649.hg.1) [1]: -0.9579 | logFC ZNF43 (transcript TC1900010163.hg.1) [1]: -0.8461 | logFC ZNF107 (transcript TC0700013370.hg.1) [1]: -1.056 | logFC ZNF805 (transcript TC1900008988.hg.1) [1]: -0.8747 | logFC geneSymbol NA (transcript 23064083) [1]: -1.061 | logFC geneSymbol NA (transcript 23066345) [1]: -1.581 | logFC geneSymbol NA (transcript 23066351) [1]: -1.258 | logFC geneSymbol NA (transcript 23066370) [1]: -1.256 | logFC geneSymbol NA (transcript 23066378) [1]: -1.258 | logFC geneSymbol NA (transcript 23075414) [1]: -1.568 | logFC geneSymbol NA (transcript 23075613) [1]: -0.9478 | logFC geneSymbol NA (transcript 23075631) [1]: -0.8653 | logFC geneSymbol NA (transcript 23075715) [1]: -0.9535 | logFC geneSymbol NA (transcript 23075786) [1]: -0.9478 | logFC geneSymbol NA (transcript 23075802) [1]: -0.9222 | logFC geneSymbol NA (transcript 23075888) [1]: -0.8842 | logFC geneSymbol NA (transcript 23075961) [1]: -0.9103 | logFC geneSymbol NA (transcript 23076100) [1]: -0.9321 | logFC geneSymbol NA (transcript 23076182) [1]: -0.9773 | logFC geneSymbol NA (transcript 23076263) [1]: -0.9293 | logFC geneSymbol NA (transcript 23076348) [1]: -0.9199 | logFC geneSymbol NA (transcript 23076424) [1]: -0.8654 | logFC geneSymbol NA (transcript 23076493) [1]: -0.9827 | logFC geneSymbol NA (transcript HTA2-pos-3670232_st) [1]: -0.8727 | logFC geneSymbol NA (transcript HTA2-pos-3670240_st) [1]: -1.133 | logFC geneSymbol NA (transcript HTA2-pos-PSR05023592.hg.1) [1]: -0.8946 | logFC geneSymbol NA (transcript HTA2-pos-PSR05035203.hg.1) [1]: -1.027 | logFC geneSymbol NA (transcript HTA2-pos-PSR17008061.hg.1) [1]: -0.9289 | logFC geneSymbol NA (transcript HTA2-pos-PSR17008062.hg.1) [1]: -0.8972 | logFC geneSymbol NA (transcript HTA2-pos-PSR17008080.hg.1) [1]: -0.8914 | logFC geneSymbol NA (transcript HTA2-pos-PSR17008100.hg.1) [1]: -0.9888 | logFC geneSymbol NA (transcript HTA2-pos-PSR17013956.hg.1) [1]: -1.322 | logFC geneSymbol NA (transcript HTA2-pos-PSR19006615.hg.1) [1]: -0.8048 | logFC transcript 23071521 (geneSymbol NA) (transcript 23071521, DMSO vs 5 µM SAHA, upregulated genes): 0.9492 | logFC transcript 23074028 (geneSymbol NA) (transcript 23074028, DMSO vs 5 µM SAHA, upregulated genes): 1.15 | logFC REPS2 (transcript TC0X00006704.hg.1, DMSO vs 5 µM SAHA, upregulated genes): 2.016 | logFC FAM3C2 (transcript TC0X00006789.hg.1, DMSO vs 5 µM SAHA, upregulated genes): 1.058 | logFC TMEM35 (transcript TC0X00007935.hg.1, DMSO vs 5 µM SAHA, upregulated genes): 1.065 | logFC SMIM10 (transcript TC0X00008492.hg.1, DMSO vs 5 µM SAHA, upregulated genes): 1.0804 | logFC CDR1 (transcript TC0X00008596.hg.1, DMSO vs 5 µM SAHA, upregulated genes): 2.1035 | logFC GEMIN8 (transcript TC0X00009107.hg.1, DMSO vs 5 µM SAHA, upregulated genes): 1.085 | logFC TAB3 (transcript TC0X00009339.hg.1, DMSO vs 5 µM SAHA, upregulated genes): 0.8188 | logFC TMEM255A (transcript TC0X00010670.hg.1, DMSO vs 5 µM SAHA, upregulated genes): 1.002 | logFC DCAF6 (transcript TC0100010518.hg.1, DMSO vs 5 µM SAHA, upregulated genes): 0.8028 | logFC LAMC1 (transcript TC0100010863.hg.1, DMSO vs 5 µM SAHA, upregulated genes): 1.035 | logFC PPP2R5A (transcript TC0100011520.hg.1, DMSO vs 5 µM SAHA, upregulated genes): 0.853 | logFC VASH2 (transcript TC0100011552.hg.1, DMSO vs 5 µM SAHA, upregulated genes): 1.211 | logFC FRRS1 (transcript TC0100015049.hg.1, DMSO vs 5 µM SAHA, upregulated genes): 1.197 | logFC PLD5 (transcript TC0100017957.hg.1, DMSO vs 5 µM SAHA, upregulated genes): 1.018 | logFC FPGT-TNNI3K (transcript TC0100018235.hg.1, DMSO vs 5 µM SAHA, upregulated genes): 1.058 | logFC PPP1R21 (transcript TC0200007535.hg.1, DMSO vs 5 µM SAHA, upregulated genes): 1.2457 | logFC ACVR2A (transcript TC0200009596.hg.1, DMSO vs 5 µM SAHA, upregulated genes): 1.001 | logFC ACSL3 (transcript TC0200010907.hg.1, DMSO vs 5 µM SAHA, upregulated genes): 1.082 | logFC PIGF (transcript TC0200012489.hg.1, DMSO vs 5 µM SAHA, upregulated genes): 1.027 | logFC RND3 (transcript TC0200014597.hg.1, DMSO vs 5 µM SAHA, upregulated genes): 0.9455 | logFC ACVR1C (transcript TC0200014694.hg.1, DMSO vs 5 µM SAHA, upregulated genes): 1.493 | logFC CMTM8 (transcript TC0300006961.hg.1, DMSO vs 5 µM SAHA, upregulated genes): 0.9182 | logFC RNF13 (transcript TC0300009147.hg.1, DMSO vs 5 µM SAHA, upregulated genes): 1.125 | logFC RAP2B (transcript TC0300009229.hg.1, DMSO vs 5 µM SAHA, upregulated genes): 0.867 | logFC TIPARP (transcript TC0300009282.hg.1, DMSO vs 5 µM SAHA, upregulated genes): 0.8784 | logFC PPM1L (transcript TC0300009353.hg.1, DMSO vs 5 µM SAHA, upregulated genes): 1.659 | logFC POLR2H (transcript TC0300009706.hg.1, DMSO vs 5 µM SAHA, upregulated genes): 0.9753 | logFC SLC9A9 (transcript TC0300012686.hg.1, DMSO vs 5 µM SAHA, upregulated genes): 2.129 | logFC TNIK (transcript TC0300013108.hg.1, DMSO vs 5 µM SAHA, upregulated genes): 1.27 | logFC EFHB (transcript TC0300013950.hg.1, DMSO vs 5 µM SAHA, upregulated genes): 1.411 | logFC DGKG (transcript TC0300014083.hg.1, DMSO vs 5 µM SAHA, upregulated genes): 2.595 | logFC BMP2K (transcript TC0400007938.hg.1, DMSO vs 5 µM SAHA, upregulated genes): 0.9344 | logFC NPNT (transcript TC0400008331.hg.1, DMSO vs 5 µM SAHA, upregulated genes): 1.698 | logFC HHIP (transcript TC0400008892.hg.1, DMSO vs 5 µM SAHA, upregulated genes): 1.6713 | logFC KIAA0922 (transcript TC0400009038.hg.1, DMSO vs 5 µM SAHA, upregulated genes): 1.219 | logFC ETFDH (transcript TC0400009132.hg.1, DMSO vs 5 µM SAHA, upregulated genes): 0.9226 | logFC CLCN3 (transcript TC0400009284.hg.1, DMSO vs 5 µM SAHA, upregulated genes): 0.8527 | logFC FAM175A (transcript TC0400011208.hg.1, DMSO vs 5 µM SAHA, upregulated genes): 1.331 | logFC PAPSS1 (transcript TC0400011538.hg.1, DMSO vs 5 µM SAHA, upregulated genes): 0.9468 | logFC ETNPPL (transcript TC0400011563.hg.1, DMSO vs 5 µM SAHA, upregulated genes): 1.856 | logFC PDE5A (transcript TC0400011712.hg.1, DMSO vs 5 µM SAHA, upregulated genes): 1.355 | logFC RAPGEF2 (transcript TC0400012856.hg.1, DMSO vs 5 µM SAHA, upregulated genes): 1.1527 | logFC FAM105A (transcript TC0500006816.hg.1, DMSO vs 5 µM SAHA, upregulated genes): 1.369 | logFC SLC36A1 (transcript TC0500009123.hg.1, DMSO vs 5 µM SAHA, upregulated genes): 0.9929 | logFC ARL15 (transcript TC0500010731.hg.1, DMSO vs 5 µM SAHA, upregulated genes): 2.128 | logFC GLRX (transcript TC0500011497.hg.1, DMSO vs 5 µM SAHA, upregulated genes): 0.987 | logFC NME5 (transcript TC0500012160.hg.1, DMSO vs 5 µM SAHA, upregulated genes): 1.606 | logFC PCDH1 (transcript TC0500012294.hg.1, DMSO vs 5 µM SAHA, upregulated genes): 1.432
